4 compounds from ChEMBL document CHEMBL3046427, “Wound healing phytoconstituents from seed kernel of Entada pursaetha DC. and their molecular docking studies with glycogen synthase kinase 3-” (2012) can be followed below.

In experiment [1] the test system is Rattus norvegicus. Put plainly: Wound healing activity in Rattus norvegicus Swiss albino Wistar (rat) dead space wound model assessed as granular tissue weight per 100 g tissue at 5 mg/ml, po measured on day 10 post-wounding (reference value: 31 +/- 0.93 mg). Type of experiment: functional.
In experiment [2] the test system is Rattus norvegicus. Description: Wound healing activity in Rattus norvegicus Swiss albino Wistar (rat) incision wound model assessed as skin breaking strength at 5 mg/ml, po measured on day 10 post-wounding by tensiometric analysis (reference value: 400 +/- 28.87 g). Type of experiment: functional.
The subject of experiment [3] is Rattus norvegicus. Put plainly: Wound healing activity in Rattus norvegicus Swiss albino Wistar (rat) excision wound model assessed as time of epithelialization at 0.2% w/v administered topically (reference value: 24 +/- 0.26 days). The format is functional.
The subject of experiment [4] is Rattus norvegicus. Description: Wound healing activity in Rattus norvegicus Swiss albino Wistar (rat) excision wound model assessed as wound closure at 0.2% w/v administered topically measured on day 4 post-wounding (reference value: 25.59 +/- 1.79%). The format is functional.
Experiment [5] concerns Rattus norvegicus. Put plainly: Wound healing activity in Rattus norvegicus Swiss albino Wistar (rat) excision wound model assessed as wound closure at 0.2% w/v administered topically measured on day 16 post-wounding (reference value: 83.31 +/- 1.06%). The format is functional.
For experiment [6], the system named is Rattus norvegicus. Description: Wound healing activity in Rattus norvegicus Swiss albino Wistar (rat) excision wound model assessed as wound closure at 0.2% w/v administered topically measured on day 8 post-wounding (reference value: 48.75 +/- 1.34%). Type of experiment: functional.
The subject of experiment [7] is Rattus norvegicus. Put plainly: Wound healing activity in Rattus norvegicus Swiss albino Wistar (rat) excision wound model assessed as wound closure at 0.2% w/v administered topically measured on day 12 post-wounding (reference value: 69.04 +/- 1.05%). Type of experiment: functional.
The subject of experiment [8] is Rattus norvegicus. Put plainly: Wound healing activity in Rattus norvegicus Swiss albino Wistar (rat) dead space wound model assessed as hydroxyproline content per 100 g tissue at 5 mg/ml, po measured on day 10 post-wounding by Neuman-Logan method (reference value: 1369.67 +/- 10.54 ug). The format is functional.
Experiment [9] concerns Rattus norvegicus. Put plainly: Wound healing activity in Rattus norvegicus Swiss albino Wistar (rat) dead space wound model assessed as tissue breaking strength at 5 mg/ml, po measured on day 10 post-wounding (reference value: 260.83 +/- 14.05 g). Type of experiment: functional.
Experiment [10] concerns Rattus norvegicus. Description: Wound healing activity in Rattus norvegicus Swiss albino Wistar (rat) incision wound model assessed as skin breaking strength at 10 mg/ml, po measured on day 10 by tensiometric analysis (reference value: 400 +/- 28.87 g). Type of experiment: functional.
Experiment [11] has as its system Rattus norvegicus. Description: Wound healing activity in Rattus norvegicus Swiss albino Wistar (rat) dead space wound model assessed as decrease in macrophages at 10 mg/ml, po measured on day 10 post-wounding by histological analysis relative to control. Type of experiment: functional, organism-based.
Experiment [12] concerns Rattus norvegicus. Description: Wound healing activity in Rattus norvegicus Swiss albino Wistar (rat) dead space wound model assessed as increase in collagenation of granulation tissue at 10 mg/ml, po measured on day 10 post-wounding by histological analysis relative to control. The format is functional, organism-based.
In experiment [13] the test system is Rattus norvegicus. Put plainly: Wound healing activity in Rattus norvegicus Swiss albino Wistar (rat) dead space wound model assessed as hydroxyproline content per 100 g tissue at 10 mg/ml, po measured on day 10 post-wounding by Neuman-Logan method (reference value: 1369.67 +/- 10.54 ug). The format is functional.
For experiment [14], the system named is Rattus norvegicus. Put plainly: Wound healing activity in Rattus norvegicus Swiss albino Wistar (rat) dead space wound model assessed as tissue breaking strength at 10 mg/ml, po measured on day 10 post-wounding (reference value: 260.83 +/- 14.05 g). The format is functional.
In experiment [15] the test system is Rattus norvegicus. Description: Wound healing activity in Rattus norvegicus Swiss albino Wistar (rat) dead space wound model assessed as granular tissue weight per 100 g tissue at 10 mg/ml, po measured on day 10 post-wounding (reference value: 31 +/- 0.93 mg). Type of experiment: functional.
Experiment [16] relates to Rattus norvegicus. Put plainly: Wound healing activity in po dosed Rattus norvegicus Swiss albino Wistar (rat) incision wound model assessed as skin breaking strength measured on day 10 post-wounding by tensiometric analysis (reference value: 400 +/- 28.87 g). The format is functional.
Experiment [17] concerns Rattus norvegicus. Put plainly: Wound healing activity in Rattus norvegicus Swiss albino Wistar (rat) incision wound model assessed as skin breaking strength at 15 mg/ml, po measured on day 10 post-wounding by tensiometric analysis (reference value: 400 +/- 28.87 g). Type of experiment: functional.
The subject of experiment [18] is Rattus norvegicus. Put plainly: Wound healing activity in Rattus norvegicus Swiss albino Wistar (rat) dead space wound model assessed as hydroxyproline content per 100 g tissue at 15 mg/ml, po measured on day 10 post-wounding by Neuman-Logan method (reference value: 1369.67 +/- 10.54 ug). The format is functional.
Experiment [19] concerns Rattus norvegicus. Put plainly: Wound healing activity in Rattus norvegicus Swiss albino Wistar (rat) dead space wound model assessed as tissue breaking strength at 15 mg/ml, po measured on day 10 post-wounding (reference value: 260.83 +/- 14.05 g). Type of experiment: functional.
Experiment [20] relates to Rattus norvegicus. Put plainly: Wound healing activity in Rattus norvegicus Swiss albino Wistar (rat) dead space wound model assessed as granular tissue weight per 100 g tissue at 15 mg/ml, po measured on day 10 post-wounding (reference value: 31 +/- 0.93 mg). Type of experiment: functional.

Structures are written as SMILES. The source made the active and inactive calls. The rule behind the calls is not given here.

With `CS/C=C/C(=O)NCCO` [ENTADAMIDE], the Activity was 50.75 mg in experiment [1]; 533.5 g in experiment [2]; 28.28% in experiment [4]; 92.22% in experiment [5]; 57.32% in [6]; 71.27% in experiment [7]. Moreover, the Activity in experiment [8] worked out at 1891.17 µg; in experiment [9], 463.33 g. The Time in [3] worked out at 19.92 days.

On to `CC1(C)CC[C@]2(C(=O)O)[C@H](O)[C@H](O)[C@]3(C)C(=CC[C@@H]4[C@@]5(C)CC[C@H](O)C(C)(C)[C@@H]5CC[C@]43C)[C@@H]2C1` [ENTAGENIC ACID], for which the Activity in [10] is 655.67 g; in experiment [4], 33.39%; in [5] it was 96.08%; in experiment [6], 65.21%; in experiment [7], 76.38%; in experiment [13], 2001.33 µg. Further, the Activity came out at 549.83 g in experiment [14] and 53.11 mg in experiment [15]. Besides, the Time in experiment [3] is 18.08 days. Moreover, the outcome in experiment [11] and in experiment [12] was Active.

For the compound `NC(=O)N/N=C/c1ccc([N+](=O)[O-])o1` [NITROFURAZONE], the Activity in experiment [16] is given as 683.33 g; in experiment [4] it was 41.46%; in experiment [5], 97.64%; in experiment [6], 80.7%; in experiment [7], 91.32%. Moreover, the Time in experiment [3] worked out at 16.33 days.

On to `O=C(O)Cc1cc(O)ccc1O[C@@H]1O[C@H](CO)[C@@H](O)[C@H](O)[C@H]1O` [PHASEOLOIDIN], for which the Activity in experiment [17] worked out at 490.33 g; in experiment [4], 27.08%; in experiment [5] it was 88.5%; in experiment [6] it was 52.15%; in [7] it was 70.08%; in experiment [18] it was 1690.33 µg. Further, the Activity is listed as 450.17 g in experiment [19] and 43.92 mg in experiment [20]. Besides, in experiment [3], the Time was determined as 21.16 days.
